{
  "source": "patent US7678833B2",
  "about": "(Allium Vitalis Incorporated, priority 2006, dated 2010)",
  "key": {"[1]": {"settings": "cited from earlier work"}, "[2]": {"test_system": "red blood cells (RBCs)", "assay": "SAMC incubated with red blood cells: formation and localization of AllylSH and DADS", "format": "cell-based", "settings": "for extracellular AllylSH concentration: RBCs with 0.5 mM SAMC", "experimental": "For these experiments, 0.25 ml of packed RBCs were suspended in 1.75 ml of phosphate buffer solution (PBS) along with an initial concentration 0.5 mM of SAMC.\nThe experimental results are graphed in FIG. 3.\nThe significant effect of glucose is due in part to the energy requirement for the reduction of GSSG to GSH by glutathione reductase, and the need for this “reductive power” to increase the concentration of thiols relative to the concentration of disulfides."}, "[3]": {"test_system": "cells", "settings": "cited from earlier work"}, "[4]": {"test_system": "trypsin enzyme inhibitor", "settings": "soy flour, cysteine 2% by weight, 65 degrees C. for 1 hour; cited from earlier work"}, "[5]": {"settings": "in vivo; cited from earlier work"}, "[6]": {"settings": "HIV patients, 7 months, 600 mg/day to 3600 mg/day; cited from earlier work"}, "[7]": {"settings": "8 weeks, 8000 mg/day; cited from earlier work"}, "[8]": {"settings": "first hour after consumption; cited from earlier work"}, "[9]": {"test_system": "mucosal cell", "settings": "within 3 hours; cited from earlier work"}, "[10]": {"settings": "n-octanol/water; cited from earlier work"}, "[11]": {"assay": "plasma albumin level as measure of plasma thiol/disulfide redox (applicant)", "format": "in vivo, human", "description": "Subsequently, an alternative, simpler assay procedure for the thiol/disulfide ratio was found in the literature. Other researchers had determined that the level of plasma albumin correlates linearly with the thiol/disulfide redox (BLOOD92:59, in which paper this redox relationship is expressed by the cystine/thiol ratio).\nThis method of determination of the plasma redox is of great interest to the applicant because the albumin concentration is one of the standard measurements performed in medical lab reports. This meant that historical data was available that could show the age-related decline in albumin level and confirm its reversal with the administration of dietary supplement capsules containing protein bound allyl mercaptan. It could also be used to confirm that the effect was reversible (by discontinuing the administration of the capsules) and repeatable (by the resumption of the administration of the capsules).\nThe historical albumin levels for the applicant are as follows:\nOver the next 3 months, an experiment was performed to determine whether this effect was reversible, and then to see if the effect was repeatable:\nThe age related initial decline of approximately −0.05 per year is also shown extended by a dotted trend line. The presumed departure from the trend that occurred when the supplement use was started is indicated by the first solid line segment."}, "[12]": {"test_system": "heapatocytes", "settings": "hepatocytes exposed to acetaminophen, among 8 cysteine prodrugs tested; cited from earlier work"}, "[13]": {"test_system": "acetaminophen", "settings": "mice, cited from earlier work"}},
  "note": "“Also recorded” adds a separate entry of the source. Like-named read-outs stand apart in the source and are kept apart here.",
  "data": [
    {"compound": "sodium arsenate", "values": [
      {"measurement": "liver glutathione level", "setting": "[1]; protein deficient (6%) rats, control 74", "value": 134, "unit": "micrograms per gram"},
      {"measurement": "liver glutathione level", "setting": "[1]; well fed rats (18% protein in the diet), control 88", "value": 123, "unit": "micrograms per gram"}
    ]},
    {"compound": "C=CCSSC[C@H](N)C(=O)O", "note": "[SAMC, S-AllylMercaptoCysteine]", "values": [
      {"measurement": "intracellular formation of AllylSH", "setting": "[2]; RBCs, 0.5 mM SAMC, 10 and 30 minutes, with glucose (10 mM) vs without glucose", "value": "significantly higher"},
      {"measurement": "total glutathione level of cells", "setting": "[3]", "value": "significantly increase; also recorded: significant increases"}
    ]},
    {"compound": "N[C@@H](CS)C(=O)O", "note": "[cysteine, Cysteine]", "values": [
      {"measurement": "deactivation of trypsin enzyme inhibitor", "setting": "[4]", "value": "over 90%"}
    ]},
    {"compound": "O=C1N[C@H](C(=O)O)CS1", "note": "[OTZ, L-2-Oxo-thiazolidine]", "values": [
      {"measurement": "toxicity", "setting": "[5]", "value": "relatively non-toxic"}
    ]},
    {"compound": "CC(=O)N[C@@H](CS)C(=O)O", "note": "[NAC, N-acetylcysteine]", "values": [
      {"measurement": "plasma albumin increase", "setting": "[6]", "value": "approximately 5%"},
      {"measurement": "toxicity", "setting": "[5]", "value": "relatively non-toxic"},
      {"measurement": "toxicity", "setting": "[7]", "value": "no reported toxicity"},
      {"measurement": "whole blood glutathione increase", "setting": "[7]", "value": "approximately 10%"}
    ]},
    {"compound": "[AsH3]", "note": "[arsenic]", "values": [
      {"measurement": "excreted directly from the liver to the bile", "setting": "[8]", "value": "~40", "unit": "%"},
      {"measurement": "glutathione concentration in the mucosal cell", "setting": "[9]", "value": "twice the normal concentration"}
    ]},
    {"compound": "C=CCSSCC=C", "note": "[DADS, Diallyl Disulfide]", "values": [
      {"measurement": "partition coefficient", "setting": "[10]", "value": 25}
    ]},
    {"compound": "C=CCS", "note": "[AllylSH, AllylThiol]", "values": [
      {"measurement": "albumin level", "setting": "[11]; 180 mg AllylSH each day", "value": 5.1, "unit": "g/dL"},
      {"measurement": "albumin level", "setting": "[11]; +1 mo., AllylSH consumption discontinued", "value": 4.9, "unit": "g/dL"},
      {"measurement": "albumin level", "setting": "[11]; donor one, ~20 mg AllylSH each day", "value": 5.0, "unit": "g/dL"},
      {"measurement": "albumin level", "setting": "[11]; donor two, ~20 mg AllylSH each day", "value": 5.0, "unit": "g/dL"},
      {"measurement": "albumin level", "setting": "[11]; second +1 mo., AllylSH consumption still discontinued", "value": 4.5, "unit": "g/dL"},
      {"measurement": "albumin level", "setting": "[11]; third +1 mo., consumption resumed at 180 mg AllylSH/day", "value": 4.7, "unit": "g/dL"},
      {"measurement": "albumin level", "setting": "[11]; ~5 mg AllylSH/day", "value": 4.6, "unit": "g/dL"},
      {"measurement": "membrane permeability", "setting": "[2]", "value": "membrane permeable"},
      {"measurement": "extracellular AllylSH concentration", "setting": "[2]; fed glucose", "value": "continued to rise significantly"},
      {"measurement": "extracellular AllylSH concentration", "setting": "[2]; glucose starved", "value": "no increase in AllylSH after the initial rise"}
    ]},
    {"compound": "D-glucose-L-cysteine [DGC]", "values": [
      {"measurement": "raising the GSH level", "setting": "[12]", "value": "most effective"},
      {"measurement": "hepatic injury from acetaminophen administration", "setting": "[13]; administered 4 hours previously", "value": "significantly reduced"},
      {"measurement": "hepatic injury from acetaminophen administration", "setting": "[13]; administered simultaneously", "value": "not effective"}
    ]},
    {"compound": "Cc1c(C)c2c(c(C)c1O)CC[C@@](C)(CCC[C@H](C)CCC[C@H](C)CCCC(C)C)O2", "note": "[alpha-tocopherol, reference compound]", "values": [
      {"measurement": "partition coefficient", "setting": "[10]", "value": 550}
    ]}
  ]
}
